Experimental data reported in patent US10160762B2, “6-alkyl dihydropyrazolopyrimidinone compounds as PDE2 inhibitors” (Merck Sharp & Dohme Corp., priority 2015, dated 2018).

Biological target: T1, Rhesus PDE2A3 (Macaca mulatta, UniProt B3VTJ2)
T1 construct: made in house; host or cells: AD293 cells, transient transfection; supernatant of sonicated lysate
T1 sequence (B3VTJ2 1-941): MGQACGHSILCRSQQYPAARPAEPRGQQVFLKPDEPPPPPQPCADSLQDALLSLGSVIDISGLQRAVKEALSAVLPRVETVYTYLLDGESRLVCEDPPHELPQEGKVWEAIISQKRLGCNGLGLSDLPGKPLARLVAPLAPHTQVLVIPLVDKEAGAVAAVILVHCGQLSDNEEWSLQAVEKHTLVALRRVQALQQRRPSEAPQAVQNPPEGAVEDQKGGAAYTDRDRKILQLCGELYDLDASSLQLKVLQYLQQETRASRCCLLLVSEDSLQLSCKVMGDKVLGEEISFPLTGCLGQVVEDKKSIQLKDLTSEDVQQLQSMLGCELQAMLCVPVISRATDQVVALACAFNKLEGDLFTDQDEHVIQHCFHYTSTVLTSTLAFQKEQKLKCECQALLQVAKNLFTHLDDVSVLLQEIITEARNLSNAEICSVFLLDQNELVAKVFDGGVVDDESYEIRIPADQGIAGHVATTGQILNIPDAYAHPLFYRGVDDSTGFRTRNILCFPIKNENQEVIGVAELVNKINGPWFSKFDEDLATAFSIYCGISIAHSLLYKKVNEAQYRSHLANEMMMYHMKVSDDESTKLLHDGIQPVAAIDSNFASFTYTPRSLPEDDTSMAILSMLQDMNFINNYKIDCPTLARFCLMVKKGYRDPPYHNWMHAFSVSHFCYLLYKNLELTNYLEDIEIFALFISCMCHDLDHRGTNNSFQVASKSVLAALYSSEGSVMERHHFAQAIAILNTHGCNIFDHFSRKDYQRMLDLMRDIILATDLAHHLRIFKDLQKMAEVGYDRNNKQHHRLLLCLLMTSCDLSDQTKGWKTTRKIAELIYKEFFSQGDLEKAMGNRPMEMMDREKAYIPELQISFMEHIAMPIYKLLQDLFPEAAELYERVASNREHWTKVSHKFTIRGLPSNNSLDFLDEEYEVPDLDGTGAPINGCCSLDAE
Experiment: PDE2 fluorescence polarization (IMAP FP) inhibition assay, rhesus PDE2A3
Type: biochemical, rhesus macaque
Settings: Lab B; read-out: Rhesus PDE2 Ki (nM) Lab B
Summary of the method: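 Enzyme source was the lysate supernatant of AD293 cells transiently expressing rhesus PDE2A3, diluted to give 20% conversion of 50 nM FAM-cAMP, with 1 µM cGMP as activator. Buffer was 10 mM Tris pH 7.2, 10 mM MgCl2, 1 mM DTT.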

SMILES	Ki
Cc1nc2c(c(CO)nn2C(c2ccc(OC(F)(F)F)c(F)c2)C2CC2)c(=O)[nH]1 (single isomer, unassigned) [Example 93, (S)- or (R)-1-(Cyclopropyl(3-fluoro-4-(trifluoromethoxy)phenyl)methyl)-3-(hydroxymethyl)-6-methyl-1H-pyrazolo[3,4-d]pyrimidin-4(5H)-one]	1.9 nM
CC(c1ccc(C(F)(F)F)cc1)n1nc(CO)c2c(=O)[nH]c(C(F)F)nc21 (stereo not shown) [Example 284, 6-(Difluoromethyl)-3-(hydroxymethyl)-1-(1-(4-(trifluoromethyl)phenyl)ethyl)-1H-pyrazolo[3,4-d]pyrimidin-4(5H)-one]	69 nM
COc1cccc(Cc2nc3c(c(CF)nn3C(C)c3ccc(C(F)(F)F)cc3)c(=O)[nH]2)c1 (single isomer, unassigned) [Example 221, (S)- or (R)-3-(Fluoromethyl)-6-(3-methoxybenzyl)-1-(1-(4-(trifluoromethyl)phenyl)ethyl)-1H-pyrazolo[3,4-d]pyrimidin-4(5H)-one]	1.9 nM
Cc1nc2c(c(CO)nn2C(c2ccc(OC(F)(F)F)c(F)c2)C2CC2)c(=O)[nH]1 (single isomer, unassigned) [Example 92, (R)- or (S)-1-(Cyclopropyl(3-fluoro-4-(trifluoromethoxy)phenyl)methyl)-3-(hydroxymethyl)-6-methyl-1H-pyrazolo[3,4-d]pyrimidin-4(5H)-one]	10 nM
Cc1nc2c(c(CO)nn2C(C)c2ccc(SC(F)(F)F)cc2)c(=O)[nH]1 (single isomer, unassigned) [Example 23, (S)- or (R)-3-(Hydroxymethyl)-6-methyl-1-(1-(4-(trifluoromethylthio)phenyl)ethyl)-1H-pyrazolo[3,4-d]pyrimidin-4(5H)-one]	1.7 nM
COc1ccc(Cc2nc3c(c(CF)nn3C(C)c3ccc(C(F)(F)F)cc3)c(=O)[nH]2)cc1 (single isomer, unassigned) [Example 219, (S)- or (R)-3-(Fluoromethyl)-6-(4-methoxybenzyl)-1-(1-(4-(trifluoromethyl)phenyl)ethyl)-1H-pyrazolo[3,4-d]pyrimidin-4(5H)-one]	0.87 nM
Cc1nc2c(c(/C=N\O)nn2C(C)c2ccc(C(F)(F)F)cc2)c(=O)[nH]1 (stereo not shown) [Example 251, (Z)-6-Methyl-4-oxo-1-(1-(4-(trifluoromethyl)phenyl)ethyl)-4,5-dihydro-1H-pyrazolo[3,4-d]pyrimidine-3-carbaldehyde oxime]	8.9 nM
COCc1nc2c(c(CO)nn2C(C)c2ccc(C(F)(F)F)cc2)c(=O)[nH]1 (single isomer, unassigned) [Example 293]	3.6 nM
Cc1nc2c(c(C=O)nn2C(C)c2ccc(C(F)(F)F)cc2)c(=O)[nH]1 (stereo not shown) [Example 248, 6-Methyl-4-oxo-1-(1-(4-(trifluoromethyl)phenyl)ethyl)-4,5-dihydro-1H-pyrazolo[3,4-d]pyrimidine-3-carbaldehyde]	53 nM
Cc1nc2c(c(CO)nn2C(c2ccc(OC(F)(F)F)cc2)C(C)C)c(=O)[nH]1 (single isomer, unassigned) [Example 85, (S)- or (R)-3-(Hydroxymethyl)-6-methyl-1-(2-methyl-1-(4-(trifluoromethoxy)phenyl)propyl)-1H-pyrazolo[3,4-d]pyrimidin-4(5H)-one]	0.91 nM
Cc1nc2c(c(CO)nn2C(c2ccc(C(F)(F)F)c(F)c2)C(C)C)c(=O)[nH]1 (single isomer, unassigned) [Example 87, (S)- or (R)-1-(1-(3-Fluoro-4-(trifluoromethyl)phenyl)-2-methylpropyl)-3-(hydroxymethyl)-6-methyl-1H-pyrazolo[3,4-d]pyrimidin-4(5H)-one]	3.2 nM
Cc1nc2c(c(CC(F)(F)F)nn2C(c2ccc(C(F)(F)F)cc2)C2(C)CC2)c(=O)[nH]1 (single isomer, unassigned) [Example 59, (S)- or (R)-6-Methyl-1-((1-methylcyclopropyl)(4-(trifluoromethyl)phenyl)methyl)-3-(2,2,2-trifluoroethyl)-1H-pyrazolo[3,4-d]pyrimidin-4(5H)-one]	22 nM
Cc1nc2c(c(CO)nn2C(c2ccc(OC(F)(F)F)cc2)C(C)C)c(=O)[nH]1 (single isomer, unassigned) [Example 84, (R)- or (S)-3-(Hydroxymethyl)-6-methyl-1-(2-methyl-1-(4-(trifluoromethoxy)phenyl)propyl)-1H-pyrazolo[3,4-d]pyrimidin-4(5H)-one]	16 nM
Cc1nc2c(c(CO)nn2C(c2ccc(C(F)(F)F)cc2)C2(C)CC2)c(=O)[nH]1 (single isomer, unassigned) [Example 24, (R)- or (S)-3-(Hydroxymethyl)-6-methyl-1-((1-methylcyclopropyl)(4-(trifluoromethyl)phenyl)methyl)-1H-pyrazolo[3,4-d]pyrimidin-4(5H)-one]	1.9 nM
Cc1nc2c(c(CF)nn2C(c2ccc(C(F)(F)F)cc2)C(C)(C)C)c(=O)[nH]1 (single isomer, unassigned) [Example 234, (S)- or (R)-1-(2,2-Dimethyl-1-(4-(trifluoromethyl)phenyl)propyl)-3-(fluoromethyl)-6-methyl-1H-pyrazolo[3,4-d]pyrimidin-4(5H)-one]	15 nM
Cc1nc2c(c(CC(F)(F)F)nn2C(c2ccc(C(F)(F)F)cc2)C(C)(C)C)c(=O)[nH]1 (single isomer, unassigned) [Example 57, (S)- or (R)-1-(2,2-Dimethyl-1-(4-(trifluoromethyl)phenyl)propyl)-6-methyl-3-(2,2,2-trifluoroethyl)-1H-pyrazolo[3,4-d]pyrimidin-4(5H)-one]	69 nM
Cc1nc2c(c(CO)nn2C(C)c2ccc(C(F)(F)F)cc2F)c(=O)[nH]1 (single isomer, unassigned) [Example 17, (S)- or (R)-1-(1-(2-Fluoro-4-(trifluoromethyl)phenyl)ethyl)-3-(hydroxymethyl)-6-methyl-1H-pyrazolo[3,4-d]pyrimidin-4(5H)-one]	1.7 nM
Cc1nc2c(c(CF)nn2C(c2ccc(C(F)(F)F)c(F)c2)C2CC2)c(=O)[nH]1 (single isomer, unassigned) [Example 226, (R)- or (S)-1-(Cyclopropyl(3-fluoro-4-(trifluoromethyl)phenyl)methyl)-3-(fluoromethyl)-6-methyl-1,5-dihydro-4H-pyrazolo[3,4-d]pyrimidin-4-one]	0.33 nM
Cc1nc2c(c(CO)nn2C(c2ccc(C(F)(F)F)c(F)c2)C2CC2)c(=O)[nH]1 (single isomer, unassigned) [Example 91, (S)- or (R)-1-(Cyclopropyl(3-fluoro-4-(trifluoromethyl)phenyl)methyl)-3-(hydroxymethyl)-6-methyl-1H-pyrazolo[3,4-d]pyrimidin-4(5H)-one]	1 nM
CC(C)c1nc2c(c(CO)nn2C(C)c2ccc(C(F)(F)F)cc2)c(=O)[nH]1 (racemic) [Example 296, 3-(Hydroxymethyl)-6-(1-methylethyl)-1-{1-[4-(trifluoromethyl)phenyl]ethyl}-1,5-dihydro-4H-pyrazolo[3,4-d]pyrimidin-4-one]	36 nM
Cc1nc2c(c(CF)nn2C(c2ccc(OC(F)(F)F)c(F)c2)C2CC2)c(=O)[nH]1 (single isomer, unassigned) [Example 228, (R)- or (S)-1-(Cyclopropyl(3-fluoro-4-(trifluoromethoxy)phenyl)methyl)-3-(fluoromethyl)-6-methyl-1,5-dihydro-4H-pyrazolo[3,4-d]pyrimidin-4-one]	0.5 nM
Cc1nc2c(c(CO)nn2C(c2ccc(C(C)(C)C)cc2)C2CC2)c(=O)[nH]1 (single isomer, unassigned) [Example 89, (S)- or (R)-1-((4-tert-Butylphenyl)(cyclopropyl)methyl)-3-(hydroxymethyl)-6-methyl-1H-pyrazolo[3,4-d]pyrimidin-4(5H)-one]	0.48 nM
Cc1nc2c(c(CC#N)nn2C(C)c2ccc(C(F)(F)F)cc2)c(=O)[nH]1 (single isomer, unassigned) [Example 281]	1.9 nM
Cc1nc2c(c(CF)nn2C(c2ccc(OC(F)(F)F)cc2)C2CC2)c(=O)[nH]1 (single isomer, unassigned) [Example 224, (R)- or (S)-1-(Cyclopropyl(4-(trifluoromethoxy)phenyl)methyl)-3-(fluoromethyl)-6-methyl-1,5-dihydro-4H-pyrazolo[3,4-d]pyrimidin-4-one]	0.94 nM
Cc1nc2c(c(CC(F)F)nn2C(C)c2ccc(C(F)(F)F)cc2)c(=O)[nH]1 (single isomer, unassigned) [Example 286]	3.7 nM
